In US7550425B2, “Diuretic peptide conjugates” (Zealand Pharma A/S, priority 2000, dated 2009):
Peptide text beside a SMILES is read from it.

Columns and labels:
[1] = molecular target: T1, hORL1 receptor (Homo sapiens, UniProt P41146); assay: Binding to human ORL1 receptor expressed in CHO cells; set-up: expressed in transfected cells; host or cells: CHO
[2] = molecular target: T1, hORL1 receptor; assay: Efficacy: inhibition of forskolin-induced cAMP formation, hORL1 in CHO cells; assay type: cell-based; set-up: expressed in transfected cells; host or cells: CHO
Text: The ORL1 receptor is negatively coupled to cAMP and thus the effect of ORL1 agonists are detected as an inhibition of forskolin-incuced cAMP formation. Six compounds of the invention have been tested for efficacy on hORL1 receptor expressed in CHO cells.

T1 sequence (P41146 whole entry): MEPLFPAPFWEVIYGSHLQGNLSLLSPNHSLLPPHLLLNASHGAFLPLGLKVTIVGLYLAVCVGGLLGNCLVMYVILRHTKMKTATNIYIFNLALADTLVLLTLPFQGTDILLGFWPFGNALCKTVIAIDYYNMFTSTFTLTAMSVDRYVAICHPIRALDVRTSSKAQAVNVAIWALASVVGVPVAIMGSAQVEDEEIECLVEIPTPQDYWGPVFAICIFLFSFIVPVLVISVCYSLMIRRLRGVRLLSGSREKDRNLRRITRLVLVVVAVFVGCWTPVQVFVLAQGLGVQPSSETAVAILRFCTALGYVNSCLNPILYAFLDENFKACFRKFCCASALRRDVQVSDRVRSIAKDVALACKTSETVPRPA

With `CC(=O)N[C@H](CCCNC(=N)N)C(=O)N[C@H](Cc1ccc(O)cc1)C(=O)N[C@H](Cc1ccc(O)cc1)C(=O)N[C@H](CCCNC(=N)N)C(=O)N[C@H](Cc1c[nH]c2ccccc12)C(=O)N[C@H](CCCCN)C(=O)N[C@H](CCCCN)C(=O)N[C@H](CCCCN)C(=O)N[C@H](CCCCN)C(=O)N[C@H](CCCCN)C(=O)N[C@H](CCCCN)C(=O)N[C@H](CCCCN)C(N)=O` [Compound 8, Ac-RYYRWKKKKKKK-NH2 (all D)] (HELM PEPTIDE1{[ac].[dR].[dY].[dY].[dR].[dW].[dK].[dK].[dK].[dK].[dK].[dK].[dK].[am]}$$$$V2.0) the IC50 [1] was 78 nM and the EC50 [2] was 59 nM.
